Each structure is given as a SMILES string.

One may read the IC50 as the midpoint of a concentration-inhibition curve.

The test system of one assay is GP2D cells. The experiment in a line: Ras cellular assay, growth of cells with K-Ras G12D mutation (CellTiter-Glo). The format is cell-based. Conditions: cell growth, Example 9, G12D mutation, read-out: IC50 against GP2D cells. (Cellular ATP, detected with luciferase, serves as a proxy for viable cell number.)
Another assay addresses T1, K-Ras G12S (Homo sapiens, UniProt P01116, G12S).
T1 construct: made in house; host or cells: E. coli BL21 (DE3)
The experiment in a line: HTRF resonance energy transfer assay, K-Ras G12S / SOS1 interaction. It counts as biochemical. As to conditions: HTRF assay of Example 5; read-out: IC50 against K-Ras G12S. The essentials:
(§1)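 Compounds, tested in duplicate at 10 μM down to 0.01 μM, were read after about 10 min or more by HTRF as the 665/620 nm emission ratio (337 nm excitation) to derive IC50. This ratio reports FRET between an anti-GST-Eu donor on GST-K-Ras (wild-type or mutant) and an anti-6His-XL665 acceptor on His-hSOS1. Buffer: ~5 mM HEPES pH 7.4, 150 mM NaCl, 1 mM DTT, 0.05% BSA, 0.0025% Igepal.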
Background: Time-resolved FRET reads energy transfer from a long-lived donor to a nearby acceptor.

The target of another assay is T2, K-Ras G12D (Homo sapiens, UniProt P01116, G12D).
T2 construct: made in house; host or cells: E. coli BL21 (DE3)
T2 sequence (P01116 1-188 isoform P01116-2 G12D): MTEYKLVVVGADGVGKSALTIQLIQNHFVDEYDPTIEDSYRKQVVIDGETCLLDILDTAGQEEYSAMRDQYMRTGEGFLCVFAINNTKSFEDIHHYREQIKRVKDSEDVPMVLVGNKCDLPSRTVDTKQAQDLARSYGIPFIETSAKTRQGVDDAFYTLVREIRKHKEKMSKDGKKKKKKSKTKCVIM
The experiment in a line: HTRF resonance energy transfer assay, K-Ras G12D / SOS1 interaction. It counts as biochemical. As to conditions: HTRF assay of Example 5; read-out: IC50 against K-Ras G12D. The essentials: as §1

The test system of the next assay is SW620 cells. The experiment in a line: Ras cellular assay, growth of cells with K-Ras G12V mutation (CellTiter-Glo). It counts as cell-based. As to conditions: Homo sapiens, SW-620; cell growth, Example 9, G12V mutation; read-out: IC50 against SW620 cells. A digest of the protocol:
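IC50 values came from a four-parameter fit of CellTiter-Glo viability, read roughly 6 days after dosing with e.g. a 10-point threefold dilution series. G12V-mutant SW620 cells (e.g. 800 per well) had been plated the previous day in RPMI-1640/10% heat-inactivated FBS, on tissue culture-treated or ultra-low attachment plates.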

A further assay addresses T3, K-Ras WT (Homo sapiens, UniProt P01116).
T3 construct: made in house; host or cells: E. coli BL21 (DE3)
The assay is described as follows: HTRF resonance energy transfer assay, K-Ras WT / SOS1 interaction. The format is biochemical. Conditions: HTRF assay of Example 5; read-out: IC50 against K-Ras WT. A digest of the protocol: as §1

A further assay deals with A549 cells. The experiment in a line: Ras cellular assay, growth of cells with K-Ras G12S mutation (CellTiter-Glo). It counts as cell-based. As to conditions: Homo sapiens, cell growth, Example 9, G12S mutation, read-out: IC50 against A549 cells. The essentials: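 Growth inhibition IC50 values come from four-parameter fits of CellTiter-Glo luminescence, read about 6 days after compound addition. G12S-mutant A549 cells (e.g. 800/well, RPMI-1640 + 10% heat-inactivated FBS) were plated in tissue-culture-treated or ultra-low-attachment 384-well format. Dosing began the following day with serial dilutions, e.g. 10 points, 3-fold.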

Another assay has as its target T4, K-Ras G12V (Homo sapiens, UniProt P01116, G12V).
T4 construct: made in house; host or cells: E. coli BL21 (DE3)
The experiment in a line: HTRF resonance energy transfer assay, K-Ras G12V / SOS1 interaction. It counts as biochemical. As to conditions: HTRF assay of Example 5; read-out: IC50 against K-Ras G12V. A digest of the protocol: as §1

T1 sequence (P01116 1-188 isoform P01116-2 G12S): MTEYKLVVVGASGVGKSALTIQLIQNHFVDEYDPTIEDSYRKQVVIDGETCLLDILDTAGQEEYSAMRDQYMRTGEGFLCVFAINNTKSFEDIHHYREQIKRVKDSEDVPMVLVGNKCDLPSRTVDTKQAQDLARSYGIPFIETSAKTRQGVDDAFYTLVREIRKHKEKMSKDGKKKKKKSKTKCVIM
T3 sequence (P01116 1-188 isoform P01116-2): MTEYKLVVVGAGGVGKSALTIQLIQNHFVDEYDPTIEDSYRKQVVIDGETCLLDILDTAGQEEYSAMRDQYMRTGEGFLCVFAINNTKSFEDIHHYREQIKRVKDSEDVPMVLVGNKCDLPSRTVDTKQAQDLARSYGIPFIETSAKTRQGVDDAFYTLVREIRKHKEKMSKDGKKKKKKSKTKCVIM
T4 sequence (P01116 1-188 isoform P01116-2 G12V): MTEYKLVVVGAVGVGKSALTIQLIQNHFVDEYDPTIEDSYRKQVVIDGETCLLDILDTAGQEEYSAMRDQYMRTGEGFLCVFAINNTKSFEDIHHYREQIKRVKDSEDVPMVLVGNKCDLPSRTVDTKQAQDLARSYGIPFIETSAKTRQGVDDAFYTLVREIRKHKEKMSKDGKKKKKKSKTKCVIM

With `CC1COc2c(Cl)c(-c3ccc(F)c4sc(N)c(C#N)c34)c(F)c3nc(OC[C@@]45CCCN4C[C@H](F)C5)nc(c23)N1[C@@H]1CCOC1` (stereo partly drawn) [Compound 888, 2-amino-4-(8-chloro-10-fluoro-2-(((2R,7aS)-2-fluorotetrahydro-1H-pyrrolizin-7a(5H)-yl)methoxy)-5-methyl-4-((R)-tetrahydrofuran-3-yl)-5,6-dihydro-4H-[1,4]oxazepino[5,6,7-de]quinazolin-9-yl)-7-fluorobenzo[b]thiophene-3-carbonitrile], the IC50 in the assay on GP2D cells was below 500 nM; at K-Ras G12S, below 100 nM; at K-Ras G12D, below 100 nM; with SW620 cells, below 5000 nM; at K-Ras WT it was below 100 nM; in the assay on A549 cells, below 5000 nM. Further, the IC50 at K-Ras G12V was below 100 nM.

Regarding `N#Cc1c(N)sc2c(F)ccc(-c3c(Cl)c4c5c(nc(OC[C@@]67CCCN6C[C@H](F)C7)nc5c3F)N(C3CC3)CCO4)c12` [Compound 891, 2-amino-4-(8-chloro-4-cyclopropyl-10-fluoro-2-(((2R,7aS)-2-fluorotetrahydro-1H-pyrrolizin-7a(5H)-yl)methoxy)-5,6-dihydro-4H-[1,4]oxazepino[5,6,7-de]quinazolin-9-yl)-7-fluorobenzo[b]thiophene-3-carbonitrile], the IC50 with GP2D cells is below 500 nM; on K-Ras G12S, below 100 nM; on K-Ras G12D, below 100 nM; in the assay with SW620 cells it was below 5000 nM; on K-Ras WT it was below 100 nM; in the assay with A549 cells, below 5000 nM. At K-Ras G12V, the IC50 was below 100 nM.

As for `N#Cc1c(N)sc2c(F)ccc(-c3c(Cl)c4c5c(nc(OC[C@@]67CCCN6C[C@H](F)C7)nc5c3F)N(C3CC5CCC3N5C=O)CCO4)c12` (stereo partly drawn) [Compound 892, 2-amino-4-(8-chloro-10-fluoro-2-(((2R,7aS)-2-fluorotetrahydro-1H-pyrrolizin-7a(5H)-yl)methoxy)-4-(7-formyl-7-azabicyclo[2.2.1]heptan-2-yl)-5,6-dihydro-4H-[1,4]oxazepino[5,6,7-de]quinazolin-9-yl)-7-fluorobenzo[b]thiophene-3-carbonitrile], the 50% inhibitory concentration (IC50) was below 500 nM with GP2D cells; below 100 nM at K-Ras G12S; below 100 nM at K-Ras G12D; below 5000 nM with SW620 cells; below 100 nM on K-Ras WT; below 5000 nM with A549 cells. Moreover, the IC50 at K-Ras G12V was below 100 nM.

`N#Cc1c(N)sc2c(F)ccc(-c3c(Cl)c4c5c(nc(OC[C@@]67CCCN6C[C@H](F)C7)nc5c3F)N(C3CCn5nccc5C3)CCO4)c12` (stereo partly drawn) [Compound 893, 2-amino-4-(8-chloro-10-fluoro-2-(((2R,7aS)-2-fluorotetrahydro-1H-pyrrolizin-7a(5H)-yl)methoxy)-4-(4,5,6,7-tetrahydropyrazolo[1,5-a]pyridin-5-yl)-5,6-dihydro-4H-[1,4]oxazepino[5,6,7-de]quinazolin-9-yl)-7-fluorobenzo[b]thiophene-3-carbonitrile]: the concentration for half-maximal inhibition (IC50) in the assay on GP2D cells is below 500 nM; on K-Ras G12S, below 100 nM; at K-Ras G12D it was below 100 nM; in the assay with SW620 cells, below 5000 nM; at K-Ras WT, below 100 nM; in the assay on A549 cells, below 5000 nM. For the same molecule, the IC50 at K-Ras G12V was below 100 nM.

Turning to `CN1c2nc(OC[C@@]34CCCN3C[C@H](F)C4)nc3c(F)c(-c4ccc(F)c5sc(N)c(C#N)c45)c(Cl)c(c23)OCC1CO` (stereo partly drawn) [Compound 900, 2-amino-4-(8-chloro-10-fluoro-2-(((2R,7aS)-2-fluorotetrahydro-1H-pyrrolizin-7a(5H)-yl)methoxy)-5-(hydroxymethyl)-4-methyl-5,6-dihydro-4H-[1,4]oxazepino[5,6,7-de]quinazolin-9-yl)-7-fluorobenzo[b]thiophene-3-carbonitrile], the 50% inhibitory concentration (IC50) in the assay on GP2D cells is below 500 nM; on K-Ras G12S, below 100 nM; on K-Ras G12D it was below 100 nM; in the assay with SW620 cells it was below 5000 nM; at K-Ras WT, below 100 nM; with A549 cells, below 5000 nM. For the same molecule, the half-maximal inhibitory concentration (IC50) on K-Ras G12V was below 100 nM.

As to `C[C@H](Oc1nc2c3c(c(Cl)c(-c4ccc(F)c5sc(N)c(C#N)c45)c(F)c3n1)OCCN2CC(F)F)[C@@H]1CCCN1C` [Compound 901, 2-amino-4-(8-chloro-4-(2,2-difluoroethyl)-10-fluoro-2-((S)-1-((S)-1-methylpyrrolidin-2-yl)ethoxy)-5,6-dihydro-4H-[1,4]oxazepino[5,6,7-de]quinazolin-9-yl)-7-fluorobenzo[b]thiophene-3-carbonitrile], the concentration for half-maximal inhibition (IC50) in the assay on GP2D cells is below 500 nM; at K-Ras G12S it was below 100 nM; at K-Ras G12D, below 100 nM; with SW620 cells it was below 5000 nM; at K-Ras WT, below 100 nM; in the assay with A549 cells, below 5000 nM. Also, the IC50 at K-Ras G12V is below 100 nM.

In the case of `N#Cc1c(N)sc2c(F)ccc(-c3c(Cl)c4c5c(nc(OC[C@@]67CCCN6C[C@H](F)C7)nc5c3F)N(CC(F)F)[C@@H](CN)CO4)c12` [Compound 914, 2-amino-4-((5S)-5-(aminomethyl)-8-chloro-4-(2,2-difluoroethyl)-10-fluoro-2-(((2R,7aS)-2-fluorotetrahydro-1H-pyrrolizin-7a(5H)-yl)methoxy)-5,6-dihydro-4H-[1,4]oxazepino[5,6,7-de]quinazolin-9-yl)-7-fluorobenzo[b]thiophene-3-carbonitrile], the concentration for half-maximal inhibition (IC50) in the assay with GP2D cells is below 500 nM; at K-Ras G12S it was below 100 nM; at K-Ras G12D, below 100 nM; in the assay with SW620 cells, below 5000 nM; on K-Ras WT, below 100 nM; with A549 cells, below 5000 nM. The IC50 at K-Ras G12V was below 100 nM.

Turning to `N#Cc1c(N)sc2c(F)ccc(-c3c(Cl)c4c5c(nc(OC[C@@]67CCCN6C[C@H](F)C7)nc5c3F)N(C3CCN(C(=O)[C@@H]5N[C@H]5C5CC5)C3)CCO4)c12` (stereo partly drawn) [Compound 915, 2-amino-4-(8-chloro-4-(1-((2R,3S)-3-cyclopropylaziridine-2-carbonyl)pyrrolidin-3-yl)-10-fluoro-2-(((2R,7aS)-2-fluorotetrahydro-1H-pyrrolizin-7a(5H)-yl)methoxy)-5,6-dihydro-4H-[1,4]oxazepino[5,6,7-de]quinazolin-9-yl)-7-fluorobenzo[b]thiophene-3-carbonitrile], the half-inhibitory concentration (IC50) was below 500 nM in the assay with GP2D cells; below 100 nM at K-Ras G12S; below 100 nM at K-Ras G12D; below 5000 nM in the assay on SW620 cells; below 100 nM on K-Ras WT; below 5000 nM with A549 cells. On K-Ras G12V, the half-inhibitory concentration (IC50) is below 100 nM.

Regarding `N#Cc1c(N)sc2c(F)ccc(-c3c(Cl)c4c5c(nc(OC[C@@]67CCCN6C[C@H](F)C7)nc5c3F)N(C3CCN(C(=O)C5C6COCC65)C3)CCO4)c12` (stereo partly drawn) [Compound 916, 4-(4-(1-(3-oxabicyclo[3.1.0]hexane-6-carbonyl)pyrrolidin-3-yl)-8-chloro-10-fluoro-2-(((2R,7aS)-2-fluorotetrahydro-1H-pyrrolizin-7a(5H)-yl)methoxy)-5,6-dihydro-4H-[1,4]oxazepino[5,6,7-de]quinazolin-9-yl)-2-amino-7-fluorobenzo[b]thiophene-3-carbonitrile], the IC50 in the assay with GP2D cells is below 500 nM; at K-Ras G12S, below 100 nM; at K-Ras G12D, below 100 nM; in the assay with SW620 cells it was below 5000 nM; on K-Ras WT it was below 100 nM; in the assay on A549 cells, below 5000 nM. The concentration for half-maximal inhibition (IC50) on K-Ras G12V is below 100 nM.

Consider `CN1CCC(N2CCOc3c(Cl)c(-c4ccc(F)c5sc(N)c(C#N)c45)c(F)c4nc(OC[C@@]56CCCN5C[C@H](F)C6)nc2c34)C1` (stereo partly drawn) [Compound 921, 2-amino-4-(8-chloro-10-fluoro-2-(((2R,7aS)-2-fluorotetrahydro-1H-pyrrolizin-7a(5H)-yl)methoxy)-4-(1-methylpyrrolidin-3-yl)-5,6-dihydro-4H-[1,4]oxazepino[5,6,7-de]quinazolin-9-yl)-7-fluorobenzo[b]thiophene-3-carbonitrile], for which the 50% inhibitory concentration (IC50) is below 500 nM in the assay with GP2D cells; below 100 nM at K-Ras G12S; below 100 nM on K-Ras G12D; below 5000 nM in the assay on SW620 cells; below 100 nM on K-Ras WT; below 5000 nM in the assay on A549 cells. In addition, the IC50 at K-Ras G12V is below 100 nM.

On to `CC(C1CC1C#N)N1CCOc2c(Cl)c(-c3ccc(F)c4sc(N)c(C#N)c34)c(F)c3nc(OC[C@@]45CCCN4C[C@H](F)C5)nc1c23` (stereo partly drawn) [Compound 923, 2-amino-4-(8-chloro-4-(1-(2-cyanocyclopropyl)ethyl)-10-fluoro-2-(((2R,7aS)-2-fluorotetrahydro-1H-pyrrolizin-7a(5H)-yl)methoxy)-5,6-dihydro-4H-[1,4]oxazepino[5,6,7-de]quinazolin-9-yl)-7-fluorobenzo[b]thiophene-3-carbonitrile], for which the IC50 in the assay on GP2D cells was below 500 nM; on K-Ras G12S, below 100 nM; at K-Ras G12D, below 100 nM; in the assay with SW620 cells it was below 5000 nM; on K-Ras WT it was below 100 nM; in the assay with A549 cells it was below 5000 nM. On K-Ras G12V, the IC50 was below 100 nM.

Values taken from patent US12209102B2, “Heterocyclic compounds and uses thereof” (Kumquat Biosciences Inc., priority 2022, dated 2025).
